Results on 24 molecules are retold here after patent US20230102554A1 (GB002, INC., priority 2019, published 2023).

A value given as a limit tells only on which side of the number the result lay.

In general, IC50 refers to the concentration that gives 50% inhibition.

Assay [1] has as its target T1, Human PDGFRβ, cytoplasmic domain (GST-PDGFRβ) (Homo sapiens, UniProt P09619).
T1 construct: made in house
Briefly: Human PDGFRβ biochemical inhibition assay (off-chip Mobility Shift Assay). The procedure, abridged:
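GST-tagged cytoplasmic domain (aa 557-1106) from baculovirus was incubated 1 h at room temperature with compound, CSKtide, ATP at Km and Mg²⁺ in HEPES buffer, pH 7.5. Phosphorylated and unphosphorylated peptide were separated by off-chip mobility shift, and the product ratio P/(P+S) gave percent inhibition.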

Assay [2] deals with T2, Human PDGFRα, cytoplasmic domain (GST-PDGFRα) (Homo sapiens, UniProt P16234).
T2 construct: made in house
In words: Human PDGFRα biochemical inhibition assay (off-chip Mobility Shift Assay).

T2 sequence (P16234 550-1089 T674I): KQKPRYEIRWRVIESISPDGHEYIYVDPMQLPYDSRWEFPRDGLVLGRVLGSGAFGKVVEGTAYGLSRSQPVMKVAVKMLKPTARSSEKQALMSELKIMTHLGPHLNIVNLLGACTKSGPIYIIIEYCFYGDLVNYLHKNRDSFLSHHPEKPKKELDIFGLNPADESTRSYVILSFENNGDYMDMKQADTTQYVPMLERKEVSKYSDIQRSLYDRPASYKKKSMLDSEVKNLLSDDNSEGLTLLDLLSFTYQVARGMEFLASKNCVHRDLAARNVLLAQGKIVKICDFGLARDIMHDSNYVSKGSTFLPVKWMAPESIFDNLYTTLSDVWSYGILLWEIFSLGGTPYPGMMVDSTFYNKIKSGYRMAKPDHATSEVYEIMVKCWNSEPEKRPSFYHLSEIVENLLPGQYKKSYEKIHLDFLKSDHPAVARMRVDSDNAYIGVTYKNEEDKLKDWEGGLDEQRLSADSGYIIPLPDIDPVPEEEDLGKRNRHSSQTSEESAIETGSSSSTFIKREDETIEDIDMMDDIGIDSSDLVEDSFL
T1 sequence (P09619 with tags, fused parts or gaps): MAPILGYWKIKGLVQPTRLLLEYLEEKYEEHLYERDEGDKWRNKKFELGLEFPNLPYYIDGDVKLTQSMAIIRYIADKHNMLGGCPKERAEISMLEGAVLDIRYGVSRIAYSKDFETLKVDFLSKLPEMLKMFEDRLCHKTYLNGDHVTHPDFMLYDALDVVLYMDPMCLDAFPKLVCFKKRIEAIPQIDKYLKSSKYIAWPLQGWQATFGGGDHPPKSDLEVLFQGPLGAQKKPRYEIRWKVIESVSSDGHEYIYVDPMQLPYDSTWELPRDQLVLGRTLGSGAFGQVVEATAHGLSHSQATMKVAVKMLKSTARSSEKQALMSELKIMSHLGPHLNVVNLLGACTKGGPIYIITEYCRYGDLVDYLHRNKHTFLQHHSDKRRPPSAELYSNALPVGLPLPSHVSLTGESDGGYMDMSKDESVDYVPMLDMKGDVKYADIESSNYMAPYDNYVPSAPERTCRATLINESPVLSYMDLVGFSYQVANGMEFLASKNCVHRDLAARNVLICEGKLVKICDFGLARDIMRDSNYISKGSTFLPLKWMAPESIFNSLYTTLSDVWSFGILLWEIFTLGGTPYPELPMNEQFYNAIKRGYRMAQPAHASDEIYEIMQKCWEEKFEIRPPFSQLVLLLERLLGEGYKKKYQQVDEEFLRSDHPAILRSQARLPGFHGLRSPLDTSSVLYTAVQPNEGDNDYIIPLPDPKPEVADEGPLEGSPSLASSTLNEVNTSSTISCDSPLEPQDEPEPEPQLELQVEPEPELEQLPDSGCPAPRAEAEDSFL

Turning to `CCn1cc2ncc(N[C@@H](C)c3cccc(NC(=O)c4ccc(CN5CCCC6(COC6)C5)c(C)c4)c3)nc2n1` [Compound 481, (S)-4-((2-oxa-6-azaspiro[3.5]nonan-6-yl)methyl)-N-(3-(1-((2-ethyl-2H-pyrazolo[3,4-b]pyrazin-6-yl)amino)ethyl)phenyl)-3-methylbenzamide], the half-inhibitory concentration (IC50) in assay [1] and in assay [2] was less than 300 nM each time.
For the molecule `CCn1cc2ncc(N[C@@H](C)c3cccc(NC(=O)c4ccc(CN5CC[C@@H](O)C5)c(C)c4)c3)nc2n1` [Compound 482, N-(3-((S)-1-((2-ethyl-2H-pyrazolo[3,4-b]pyrazin-6-yl)annno)ethyl)phenyl)-4-(((R)-3-hydroxypyrrolidin-1-yl)methyl)-3-methylbenzamide], the IC50 in assay [1] is 300 to 1000 nM; in assay [2], less than 300 nM.
As to `CCn1cc2ncc(N[C@@H](C)c3cccc(NC(=O)c4ccc(CN5CC[C@@H](O)C5)c(Cl)c4)c3)nc2n1` [Compound 483, 3-chloro-N-(3-((S)-1-((2-ethyl-2H-pyrazolo[3,4-b]pyrazin-6-yl)amino)ethyl)phenyl)-4-(((R)-3-hydroxypyrrolidin-1-yl)methyl) benzamide], the IC50 in assay [1] and in assay [2] was less than 300 nM in each case.
Consider `CCn1cc2ncc(N[C@@H](C)c3cccc(NC(=O)c4ccc(CN5CC[C@H](F)C5)c(Cl)c4)c3)nc2n1` [Compound 484, 3-chloro-N-(3-((S)-1-((2-ethyl-2H-pyrazolo[3,4-b]pyrazin-6-yl)amino)ethyl)phenyl)-4-(((S)-3-fluoropyrrolidin-1-yl)methyl) benzamide], for which the half-inhibitory concentration (IC50) in assay [1] and in assay [2] was less than 300 nM each time.
Turning to `CCn1cc2ncc(N[C@@H](C)c3cccc(NC(=O)c4ccc(CN5CCC5)c(Cl)c4)c3)nc2n1` [Compound 486, (S)-4-(azetidin-1-ylmethyl)-3-chloro-N-(3-(1-((2-ethyl-2H-pyrazolo[3,4-b]pyrazin-6-yl)amino)ethyl)phenyl)benzamide], the IC50 in assay [1] and in assay [2] was less than 300 nM throughout.
On to `CCn1cc2ncc(N[C@@H](C)c3cccc(NC(=O)c4ccc(CN5CC(O)C5)c(Cl)c4)c3)nc2n1` [Compound 487, (S)-3-chloro-N-(3-(1-((2-ethyl-2H-pyrazolo[3,4-b]pyrazin-6-yl)amino)ethyl)phenyl)-4-((3-hydroxyazetidin-1-yl)methyl) benzamide], for which the IC50 in assay [1] and in assay [2] was less than 300 nM throughout.
Take `CCn1cc2ncc(N[C@@H](C)c3cccc(NC(=O)c4cc(F)c(CN5CCCC5)c(Cl)c4)c3)nc2n1` [Compound 488, (S)-3-chloro-N-(3-(1-((2-ethyl-2H-pyrazolo[3,4-b]pyrazin-6-yl)amino)ethyl)phenyl)-5-fluoro-4-(pyrrolidin-1-ylmethyl) benzamide]: the 50% inhibitory concentration (IC50) in assay [1] and in assay [2] was less than 300 nM each time.
Turning to `CCn1cc2ncc(N[C@@H](C)c3cccc(NC(=O)c4cc(F)c(CN5CCN(C)CC5)c(Cl)c4)c3)nc2n1` [Compound 489, (S)-3-chloro-N-(3-(1-((2-ethyl-2H-pyrazolo[3,4-b]pyrazin-6-yl)amino)ethyl)phenyl)-5-fluoro-4-((4-methylpiperazin-1-yl)methyl)benzamide], the half-inhibitory concentration (IC50) in assay [1] and in assay [2] was less than 300 nM throughout.
Turning to `CCn1cc2ncc(N[C@@H](C)c3cccc(NC(=O)c4cc(F)c(CN5CC6(COC6)C5)c(Cl)c4)c3)nc2n1` [Compound 490, (S)-4-((2-oxa-6-azaspiro[3.3]heptan-6-yl)methyl)-3-chloro-N-(3-(1-((2-ethyl-2H-pyrazolo[3,4-b]pyrazin-6-yl)amino)ethyl)phenyl)-5-fluorobenzamide], the IC50 in assay [1] and in assay [2] was less than 300 nM in each case.
In the case of `CCn1cc2ncc(N[C@@H](C)c3cc(NC(=O)c4ccc(C(F)(F)F)nc4)cc(F)c3F)nc2n1` [Compound 491, (S)-N-(3-(1-((2-ethyl-2H-pyrazolo[3,4-b]pyrazin-6-yl)amino)ethyl)-4,5-difluorophenyl)-6-(trifluoromethyl)nicotinamide], the 50% inhibitory concentration (IC50) in assay [1] and in assay [2] was 300 to 1000 nM in each case.
As to `CCn1cc2ncc(N[C@@H](C)c3cc(NC(=O)c4ccc(C(F)(F)F)nc4)c(F)cc3F)nc2n1` [Compound 492, (S)-N-(5-(1-((2-ethyl-2H-pyrazolo[3,4-b]pyrazin-6-yl)amino)ethyl)-2,4-difluorophenyl)-6-(trifluoromethyl)nicotinamide], the figures for the IC50 in assay [1] and in assay [2] were 300 to 1000 nM and less than 300 nM, respectively.
`CCn1cc2ncc(N[C@@H](C)c3cccc(NC(=O)c4ccc(CN5CC[C@H](F)C5)c(C)c4)c3)nc2n1` [Compound 493, N-(3-((S)-1-((2-ethyl-2H-pyrazolo[3,4-b]pyrazin-6-yl)amino)ethyl)phenyl)-4-(((S)-3-fluoropyrrolidin-1-yl)methyl)-3-methylbenzamide]: the concentration for half-maximal inhibition (IC50) in assay [1] and in assay [2] was less than 300 nM in each case.
With `CCn1cc2ncc(N[C@@H](C)c3cccc(NC(=O)c4ccc(CN5CC[C@H](O)C5)c(Cl)c4)c3)nc2n1` [Compound 494, 3-chloro-N-(3-((5)-1-((2-ethyl-2H-pyrazolo[3,4-b]pyrazin-6-yl)amino)ethyl)phenyl)-4-(((S)-3-hydroxypyrrolidin-1-yl)methyl) benzamide], the IC50 in assay [1] and in assay [2] was less than 300 nM in each case.
`CCn1cc2ncc(N[C@@H](C)c3cccc(NC(=O)c4ccc(CN5CC(F)C5)c(Cl)c4)c3)nc2n1` [Compound 495, (S)-3-chloro-N-(3-(1-((2-ethyl-2H-pyrazolo[3,4-b]pyrazin-6-yl)amino)ethyl)phenyl)-4-((3-fluoroazetidin-1-yl)methyl) benzamide]: the half-inhibitory concentration (IC50) in assay [1] and in assay [2] was less than 300 nM in each case.
As for `CCn1cc2ncc(N[C@@H](C)c3cccc(NC(=O)c4ccc(CN5CC(O)C5)c(C)c4)c3)nc2n1` [Compound 496, (S)-N-(3-(1-((2-ethyl-2H-pyrazolo[3,4-b]pyrazin-6-yl)amino)ethyl)phenyl)-4-((3-hydroxyazetidin-1-yl)methyl)-3-methylbenzamide], the IC50 in assay [1] was 300 to 1000 nM; in assay [2] it was less than 300 nM.
Consider `CCn1cc2ncc(N[C@@H](C)c3cccc(NC(=O)c4ccc(CN5CC(F)C5)c(C)c4)c3)nc2n1` [Compound 497, (S)-N-(3-(1-((2-ethyl-2H-pyrazolo[3,4-b]pyrazin-6-yl)amino)ethyl)phenyl)-4-((3-fluoroazetidin-1-yl)methyl)-3-methylbenzamide], for which the IC50 in assay [1] and in assay [2] was less than 300 nM in each case.
In the case of `CCc1cc(C(=O)Nc2cccc([C@H](C)Nc3cnc4cn(CC)nc4n3)c2)ccc1CN1CCN(C)CC1` [Compound 498, (S)-3-ethyl-N-(3-(1-((2-ethyl-2H-pyrazolo[3,4-b]pyrazin-6-yl)amino)ethyl)phenyl)-4-((4-methylpiperazin-1-yl)methyl) benzamide], the half-inhibitory concentration (IC50) in assay [1] and in assay [2] was less than 300 nM throughout.
Regarding `CCc1cc(C(=O)Nc2cccc([C@H](C)Nc3cnc4cn(CC)nc4n3)c2)ccc1CN1CC2(COC2)C1` [Compound 499, (S)-4-((2-oxa-6-azaspiro[3,3]heptan-6-yl)methyl)-3-ethyl-N-(3-(1-((2-ethyl-2H-pyrazolo[3,4-b]pyrazin-6-yl)amino)ethyl)phenyl)benzamide], the concentration for half-maximal inhibition (IC50) in assay [1] and in assay [2] was less than 300 nM each time.
Take `CCn1cc2ncc(N[C@@H](C)c3cccc(NC(=O)c4cnc(CN5CC6(COC6)C5)c(F)c4)c3)nc2n1` [Compound 500, (S)-6-((2-oxa-6-azaspiro[3.3]heptan-6-yl)methyl)-N-(3-(1-((2-ethyl-2H-pyrazolo[3,4-b]pyrazin-6-yl)amino)ethyl)phenyl)-5-fluoronicotinamide]: the half-inhibitory concentration (IC50) in assay [1] and in assay [2] was not below 1000 nM in each case.
Take `CCn1cc2ncc(N[C@@H](C)c3cc(NC(=O)c4cncc(C)c4)ccc3C)cc2n1` [Compound 501, (S)-N-(3-(1-((2-ethyl-2H-pyrazolo[4,3-b]pyridin-6-yl)amino)ethyl)-4-methylphenyl)-5-methylnicotinamide]: the half-maximal inhibitory concentration (IC50) in assay [1] and in assay [2] was less than 300 nM in each case.
In the case of `CCn1cc2ncc(N[C@@H](C)c3cccc(NC(=O)c4ccc(CN5CCN(C)CC5)c(C5CC5)c4)c3)nc2n1` [Compound 502, (S)-3-cyclopropyl-N-(3-(1-((2-ethyl-2H-pyrazolo[3,4-b]pyrazin-6-yl)amino)ethyl)phenyl)-4-((4-methylpiperazin-1-yl)methyl)benzamide], the IC50 in assay [1] and in assay [2] was less than 300 nM in each case.
Take `CCn1cc2ncc(N[C@@H](C)c3cccc(NC(=O)c4cnc(CN5CC6(COC6)C5)c(Cl)c4)c3)nc2n1` [Compound 503, (S)-6-((2-oxa-6-azaspiro[3.3]heptan-6-yl)methyl)-5-chloro-N-(3-(1-((2-ethyl-2H-pyrazolo[3,4-b]pyrazin-6-yl)amino)ethyl)phenyl)nicotinamide]: the 50% inhibitory concentration (IC50) in assay [1] and in assay [2] was 300 to 1000 nM in each case.
On to `CCn1cc2ncc(N[C@@H](C)c3cccc(NC(=O)c4ccc(CN5CCN(C)CC5)c(C(F)F)c4)c3)nc2n1` [Compound 504, (S)-3-(difluoromethyl)-N-(3-(1-((2-ethyl-2H-pyrazolo[3,4-b]pyrazin-6-yl)amino)ethyl)phenyl)-4-((4-methylpiperazin-1-yl)methyl)benzamide], for which the IC50 in assay [1] and in assay [2] was less than 300 nM each time.
As to `CCn1cc2ncc(N[C@@H](C)c3cccc(NC(=O)c4ccc(CN5CC6(COC6)C5)c(C5CC5)c4)c3)nc2n1` [Compound 505, (S)-4-((2-oxa-6-azaspiro[3.3]heptan-6-yl)methyl)-3-cyclopropyl-N-(3-(1-((2-ethyl-2H-pyrazolo[3,4-b]pyrazin-6-yl)amino)ethyl)phenyl)benzamide], the IC50 in assay [1] and in assay [2] was less than 300 nM each time.
